US8603986B2, “Compounds and methods for modulating cadherin-mediated processes” (McGill University, priority 2005, dated 2013)
“Also recorded” adds a separate entry of the source. Marks after values point to notes of the source that are not given here.

Assays:
[1] = molecular target: T1, N-cadherin/Fc chimeric protein (Homo sapiens, UniProt P19022); assay: Cadherin/Fc binding assay: phage ELISA on N-cadherin/Fc; design: key to ELISA Phage Binding to N-Cadherin/Fc Chimeric Protein 1.2 mM calcium / ELISA Phage Binding to N-Cadherin/Fc Chimeric Protein 2 mM EDTA / ELISA Phage Binding to Cadherin/Fc Chimeric Proteins N−: +: Phage bound to the chimeric protein; −: No phage bound to the chimeric protein
T1 construct: extracellular domain of human N-cadherin (Asp160-Ala724); purchased R&D Systems, Minneapolis, Minn
T1 sequence (P19022 160-724): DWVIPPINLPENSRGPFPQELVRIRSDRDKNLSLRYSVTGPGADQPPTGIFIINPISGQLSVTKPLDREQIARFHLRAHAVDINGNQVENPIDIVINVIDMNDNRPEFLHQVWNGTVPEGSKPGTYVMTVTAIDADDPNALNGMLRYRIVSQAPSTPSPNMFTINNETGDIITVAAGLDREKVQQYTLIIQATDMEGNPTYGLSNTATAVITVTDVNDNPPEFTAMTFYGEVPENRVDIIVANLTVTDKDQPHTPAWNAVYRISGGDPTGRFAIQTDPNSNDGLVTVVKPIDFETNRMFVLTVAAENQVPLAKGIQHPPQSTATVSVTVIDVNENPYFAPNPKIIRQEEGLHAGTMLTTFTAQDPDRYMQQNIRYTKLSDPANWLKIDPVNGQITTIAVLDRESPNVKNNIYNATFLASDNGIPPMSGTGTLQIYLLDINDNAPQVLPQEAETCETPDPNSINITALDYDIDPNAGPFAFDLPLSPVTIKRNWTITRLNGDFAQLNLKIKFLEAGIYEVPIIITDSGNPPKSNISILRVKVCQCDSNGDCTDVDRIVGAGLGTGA
Description: (§1) The peptide libraries, Ph.D.-C7C™ and Ph.D.-12™ (New England BioLabs) were used in this study. These libraries are composed of 2×10^9 randomized 7 amino acid sequences flanked by cysteine residues and linear 12 amino acid sequences, respectively. The amino acid sequences are incorporated into the minor coat protein, pIII, of M13 phage. The N-cadherin/Fc chimeric protein (R&D Systems, Minneapolis, Minn.) consists of the extracellular domain of human N-cadherin (Asp160-Ala724) and the Fc region of human IgG1. The E-cadherin/Fc chimeric protein (R&D Systems, Minneapolis, Minn.) consists of the extracellular domain of human E-cadherin (Asp155-Ile707) and the Fc region of human IgG1.
The binding of each clone to the cadherin/Fc chimeric proteins was confirmed by ELISA. Wells of ProBind microtiter plates (Falcon) were coated with either N-cadherin/Fc or E-cadherin/Fc chimeric protein (100 ng/well) or human IgG1 (which contains the Fc fragment) (100 ng/well). […] Non-coated wells were also used to exclude any phage that bound to the plastic surface. […] M13 phage without any insert were used to control the non-specific binding of the phage itself to the target. […] […] Horseradish peroxidase substrate, TMB (Sigma), was added to each well (100 μl/well and after color development the reaction was stopped by addition of 100 μl 0.5 M sulphuric acid to each well. The intensity of the color was measured at 450 nm.
(§2) The phage clones shown to bind to the N-cadherin/Fc chimeric protein by ELISA were also evaluated for their ability to bind to E-cadherin/Fc and VE-cadherin/Fc chimeric proteins. The phage clones shown to bind to the E-cadherin/Fc chimeric protein by ELISA were also evaluated for their ability to bind to N-cadherin/Fc and VE-cadherin/Fc chimeric proteins. The same ELISA protocol described in the previous section was used to perform this evaluation with the exception that the wells were coated with either 100 ng N-cadherin/Fc, E-cadherin/Fc or VE-cadherin/Fc chimeric protein (R&D Systems, Minneapolis, Minn.).

[2] = molecular target: T2, E-cadherin/Fc chimeric protein (Homo sapiens, UniProt P12830); assay: Cadherin/Fc binding assay: phage ELISA on E-cadherin/Fc; design: key: +: Phage bound to the chimeric protein; −: No phage bound to the chimeric protein
T2 construct: extracellular domain of human E-cadherin (Asp155-Ile707); purchased R&D Systems, Minneapolis, Minn
T2 sequence (P12830 155-707): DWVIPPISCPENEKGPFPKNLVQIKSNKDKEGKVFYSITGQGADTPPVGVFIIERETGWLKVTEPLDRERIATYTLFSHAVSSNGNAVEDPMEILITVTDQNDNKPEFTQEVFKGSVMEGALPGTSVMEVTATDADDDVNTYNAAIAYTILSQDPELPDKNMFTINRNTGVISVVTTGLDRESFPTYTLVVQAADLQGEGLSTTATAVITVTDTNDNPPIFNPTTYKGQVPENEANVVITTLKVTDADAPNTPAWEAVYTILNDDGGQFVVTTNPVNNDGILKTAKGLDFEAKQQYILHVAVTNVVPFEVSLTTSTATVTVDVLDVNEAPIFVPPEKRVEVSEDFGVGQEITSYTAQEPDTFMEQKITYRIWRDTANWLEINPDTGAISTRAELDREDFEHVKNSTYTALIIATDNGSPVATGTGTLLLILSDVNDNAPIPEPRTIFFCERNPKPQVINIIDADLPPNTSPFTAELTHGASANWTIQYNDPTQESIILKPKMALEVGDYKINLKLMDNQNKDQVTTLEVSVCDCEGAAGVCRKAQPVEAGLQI
Description: as §1
(§3) The binding of each clone to the cadherin/Fc chimeric proteins was confirmed by ELISA. Wells of ProBind microtiter plates (Falcon) were coated with either N-cadherin/Fc or E-cadherin/Fc chimeric protein (100 ng/well) or human IgG1 (which contains the Fc fragment) (100 ng/well). After blocking the nonspecific sites with TBS containing 3% BSA and 1.2 mM CaCl2 for 1 h at 37° C., phage clones (10^9 pfu) diluted in TBST containing 3% BSA and 1.2 mM CaCl2 (100 μl/well). Non-coated wells were also used to exclude any phage that bound to the plastic surface. After 1 h incubation at room temperature, wells were washed 3 times with TBST containing 3% BSA and 1.2 mM CaCl2. M13 phage without any insert were used to control the non-specific binding of the phage itself to the target. Monoclonal anti-M13 antibody conjugated to horseradish peroxidase (Amersham Biosciences, Piscataway, N.J.) was diluted in TBST containing 3% BSA and 1.2 mM CaCl2 (1:2,000) and added to each well (100 μl/well). After 1 h incubation at room temperature, wells were washed three times with TBST containing 3% BSA and 1.2 mM CaCl2 and once with TBS containing 1.2 mM CaCl2. Horseradish peroxidase substrate, TMB (Sigma), was added to each well (100 μl/well and after color development the reaction was stopped by addition of 100 μl 0.5 M sulphuric acid to each well. The intensity of the color was measured at 450 nm.
as §2

[3] = molecular target: T3, VE-cadherin/Fc chimeric protein (Homo sapiens, UniProt P33151); assay: Cadherin specificity: phage ELISA on VE-cadherin/Fc; type: binding; design: key: +: Phage bound to the chimeric protein; −: No phage bound to the chimeric protein
T3 construct: purchased R&D Systems, Minneapolis, Minn
T3 sequence (P33151 with tags, fused parts or gaps limits assumed, species assumed): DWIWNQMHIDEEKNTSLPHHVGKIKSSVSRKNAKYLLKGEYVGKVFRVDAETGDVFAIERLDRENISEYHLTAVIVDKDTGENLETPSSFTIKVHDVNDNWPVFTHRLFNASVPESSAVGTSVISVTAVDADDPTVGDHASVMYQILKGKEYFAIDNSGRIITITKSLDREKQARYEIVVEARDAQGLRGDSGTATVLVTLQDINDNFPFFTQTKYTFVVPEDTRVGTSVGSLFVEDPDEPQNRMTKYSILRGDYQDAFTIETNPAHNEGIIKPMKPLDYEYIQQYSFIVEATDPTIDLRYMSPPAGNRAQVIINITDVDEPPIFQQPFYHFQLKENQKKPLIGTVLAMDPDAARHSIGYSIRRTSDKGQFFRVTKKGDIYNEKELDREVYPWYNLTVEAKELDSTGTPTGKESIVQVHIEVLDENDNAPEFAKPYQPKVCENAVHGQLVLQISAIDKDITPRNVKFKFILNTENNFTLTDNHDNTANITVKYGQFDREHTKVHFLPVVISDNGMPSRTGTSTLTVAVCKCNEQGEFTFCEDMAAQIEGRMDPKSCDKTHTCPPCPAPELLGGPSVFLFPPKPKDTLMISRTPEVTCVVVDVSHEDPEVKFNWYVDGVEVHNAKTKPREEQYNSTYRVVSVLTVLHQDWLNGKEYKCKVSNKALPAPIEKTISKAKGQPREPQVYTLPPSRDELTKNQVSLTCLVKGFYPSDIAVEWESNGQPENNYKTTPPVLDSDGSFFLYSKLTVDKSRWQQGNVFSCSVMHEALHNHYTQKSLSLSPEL
Protocol: as §3, §2

[4] = Table 6, Ph.D.-C7C clones selected on E-cadherin/Fc
[5] = Table 7, Ph.D.-12 clones selected on E-cadherin/Fc
[6] = Table 4, Ph.D.-12 library clones
[7] = Table 2, Ph.D.-C7C library clones
[8] = Table 3, clones selected in the absence of calcium

Sequence: WQWCFKATC [Ec 21]
- ELISA Phage Binding to Cadherin/Fc Chimeric Proteins N− [1, 4]: +
- ELISA Phage Binding to Cadherin/Fc Chimeric Proteins E− [2, 4]: +
- ELISA Phage Binding to Cadherin/Fc Chimeric Proteins VE− [3, 4]: −

Sequence: WTMCYPDTC [Ec 7]
- ELISA Phage Binding to Cadherin/Fc Chimeric Proteins N− [1, 4]: +
- ELISA Phage Binding to Cadherin/Fc Chimeric Proteins E− [2, 4]: +*
- ELISA Phage Binding to Cadherin/Fc Chimeric Proteins VE− [3, 4]: −**

Sequence: QWTITYPKPPAL [Ec 12-13]
- ELISA Phage Binding to Cadherin/Fc Chimeric Proteins N− [1, 5]: +
- ELISA Phage Binding to Cadherin/Fc Chimeric Proteins E− [2, 5]: +
- ELISA Phage Binding to Cadherin/Fc Chimeric Proteins VE− [3, 5]: −

Sequence: EWTFQWNSYPAD [Ec 12-10]
- ELISA Phage Binding to Cadherin/Fc Chimeric Proteins N− [1, 5]: +
- ELISA Phage Binding to Cadherin/Fc Chimeric Proteins E− [2, 5]: +
- ELISA Phage Binding to Cadherin/Fc Chimeric Proteins VE− [3, 5]: −

Sequence: HWYITTGPVREK [Nc 12-01]
- ELISA Phage Binding to N-Cadherin/Fc Chimeric Protein 1.2 mM calcium [1, 6]: +*
- ELISA Phage Binding to N-Cadherin/Fc Chimeric Protein 2 mM EDTA [1, 6]: +
- ELISA Phage Binding to Cadherin/Fc Chimeric Proteins E− [2, 6]: −**
- ELISA Phage Binding to Cadherin/Fc Chimeric Proteins VE− [3, 6]: −

Sequence: WLQPYFPSY [Nc a5]
- ELISA Phage Binding to N-Cadherin/Fc Chimeric Protein 1.2 mM calcium [1, 7]: +
- ELISA Phage Binding to N-Cadherin/Fc Chimeric Protein 2 mM EDTA [1, 7]: −
- ELISA Phage Binding to Cadherin/Fc Chimeric Proteins E− [2, 7]: −
- ELISA Phage Binding to Cadherin/Fc Chimeric Proteins VE− [3, 7]: −

Sequence: WELCVSSSC [Nc 25]
- ELISA Phage Binding to N-Cadherin/Fc Chimeric Protein 1.2 mM calcium [1, 7]: +
- ELISA Phage Binding to N-Cadherin/Fc Chimeric Protein 2 mM EDTA [1, 7]: −
- ELISA Phage Binding to Cadherin/Fc Chimeric Proteins E− [2, 7]: −
- ELISA Phage Binding to Cadherin/Fc Chimeric Proteins VE− [3, 7]: −

Sequence: EWTWVFPTTHTS [Ec 12-07]
- ELISA Phage Binding to Cadherin/Fc Chimeric Proteins N− [1, 5]: +
- ELISA Phage Binding to Cadherin/Fc Chimeric Proteins E− [2, 5]: +
- ELISA Phage Binding to Cadherin/Fc Chimeric Proteins VE− [3, 5]: −

Sequence: WQVCVGAHC [NoCa11]
- phage binding to N-cadherin/Fc chimeric protein by ELISA [1]: good ELISA signal; also recorded: strong ELISA signal
- ELISA Phage Binding to N-Cadherin/Fc Chimeric Protein 1.2 mM calcium [1, 8]: +
- ELISA Phage Binding to N-Cadherin/Fc Chimeric Protein 2 mM EDTA [1, 8]: +
- ELISA Phage Binding to Cadherin/Fc Chimeric Proteins E− [2, 8]: −
- ELISA Phage Binding to Cadherin/Fc Chimeric Proteins VE− [3, 8]: −

Sequence: SWELYYPLRANL [Ec 12-a2]
- ELISA Phage Binding to Cadherin/Fc Chimeric Proteins N− [1, 5]: +
- ELISA Phage Binding to Cadherin/Fc Chimeric Proteins E− [2, 5]: +
- ELISA Phage Binding to Cadherin/Fc Chimeric Proteins VE− [3, 5]: −

Sequence: SWTLYTPSGQSK [Nc 12-04]
- ELISA Phage Binding to N-Cadherin/Fc Chimeric Protein 1.2 mM calcium [1, 6]: +
- ELISA Phage Binding to N-Cadherin/Fc Chimeric Protein 2 mM EDTA [1, 6]: −
- ELISA Phage Binding to Cadherin/Fc Chimeric Proteins E− [2, 6]: −
- ELISA Phage Binding to Cadherin/Fc Chimeric Proteins VE− [3, 6]: −

Sequence: CSKYNSPLC [Ec a4]
- ELISA Phage Binding to Cadherin/Fc Chimeric Proteins N− [1, 4]: +
- ELISA Phage Binding to Cadherin/Fc Chimeric Proteins E− [2, 4]: +
- ELISA Phage Binding to Cadherin/Fc Chimeric Proteins VE− [3, 4]: −

Sequence: SWTWHFPESPPP [Ec 12-01]
- ELISA Phage Binding to Cadherin/Fc Chimeric Proteins N− [1, 5]: +
- ELISA Phage Binding to Cadherin/Fc Chimeric Proteins E− [2, 5]: +*
- ELISA Phage Binding to Cadherin/Fc Chimeric Proteins VE− [3, 5]: −**

Sequence: NWFIDFPVYPPL [Nc 12-a1]
- ELISA Phage Binding to N-Cadherin/Fc Chimeric Protein 1.2 mM calcium [1, 6]: +
- ELISA Phage Binding to N-Cadherin/Fc Chimeric Protein 2 mM EDTA [1, 6]: +
- ELISA Phage Binding to Cadherin/Fc Chimeric Proteins E− [2, 6]: −
- ELISA Phage Binding to Cadherin/Fc Chimeric Proteins VE− [3, 6]: −

Sequence: WEFSICETC [Nc 5]
- ELISA Phage Binding to N-Cadherin/Fc Chimeric Protein 1.2 mM calcium [1, 7]: +
- ELISA Phage Binding to N-Cadherin/Fc Chimeric Protein 2 mM EDTA [1, 7]: −
- ELISA Phage Binding to Cadherin/Fc Chimeric Proteins E− [2, 7]: −
- ELISA Phage Binding to Cadherin/Fc Chimeric Proteins VE− [3, 7]: −

Sequence: WQFCYAQHC [Ec 2]
- ELISA Phage Binding to Cadherin/Fc Chimeric Proteins N− [1, 4]: +
- ELISA Phage Binding to Cadherin/Fc Chimeric Proteins E− [2, 4]: +
- ELISA Phage Binding to Cadherin/Fc Chimeric Proteins VE− [3, 4]: −

Sequence: WEVRLTEKC [Nc a3]
- ELISA Phage Binding to N-Cadherin/Fc Chimeric Protein 1.2 mM calcium [1, 7]: +
- ELISA Phage Binding to N-Cadherin/Fc Chimeric Protein 2 mM EDTA [1, 7]: −
- ELISA Phage Binding to Cadherin/Fc Chimeric Proteins E− [2, 7]: −
- ELISA Phage Binding to Cadherin/Fc Chimeric Proteins VE− [3, 7]: −

Sequence: EWQYHWPTLQSR [Ec 12-22]
- ELISA Phage Binding to Cadherin/Fc Chimeric Proteins N− [1, 5]: +
- ELISA Phage Binding to Cadherin/Fc Chimeric Proteins E− [2, 5]: +
- ELISA Phage Binding to Cadherin/Fc Chimeric Proteins VE− [3, 5]: −

Sequence: SWLAVWPATGAS [Nc 12-a10]
- ELISA Phage Binding to N-Cadherin/Fc Chimeric Protein 1.2 mM calcium [1, 6]: +
- ELISA Phage Binding to N-Cadherin/Fc Chimeric Protein 2 mM EDTA [1, 6]: +
- ELISA Phage Binding to Cadherin/Fc Chimeric Proteins E− [2, 6]: +
- ELISA Phage Binding to Cadherin/Fc Chimeric Proteins VE− [3, 6]: −

Sequence: EWFWSWPGYSNT [Ec 12-a13]
- ELISA Phage Binding to Cadherin/Fc Chimeric Proteins N− [1, 5]: +
- ELISA Phage Binding to Cadherin/Fc Chimeric Proteins E− [2, 5]: +
- ELISA Phage Binding to Cadherin/Fc Chimeric Proteins VE− [3, 5]: −
